# Reference: article PMC5221612 (Journal of the American Chemical Society, 2016)
# Read-outs that look alike come from different tables or passages of the source.
# What was measured:
# GT-1 HCV NS3/4A protease = settings: read-out: Ki against GT-1 NS3/4A protease; GT-1a wild type; cited from earlier work
# [1] = system: GT-1a NS3/4A protease with D168Q; type: biochemical, Hepatitis C virus genotype 1a; settings: GT-1a D168Q vs GT-1 WT protease
# [2] = system: GT-1a NS3/4A protease with R123T/I132L/D168Q (1a3a); assay: Enzyme inhibition assay, chimeric 1a3a NS3/4A protease; type: biochemical, Hepatitis C virus; settings: 1a3a chimera vs GT-1 WT
# GT-3 HCV NS3/4A protease [3] = biological target: GT-3 HCV NS3/4A protease (Hepatitis C virus genotype 3a, UniProt Q81258); assay: biochemical
# GT-3 HCV NS3/4A protease [4] = assay: biochemical; parameters: species or system Hepatitis C virus genotype 3a; settings: for fold change (FC) in Ki, GT-3 relative to GT-1: GT-3 Ki / GT-1 Ki; for loss in affinity in GT-3 relative to GT-1: GT-3 vs GT-1
# [5] = system: HCV GT-3 subgenomic replicon; settings: viral subgenomic replicon models; range over the named PIs; cited from earlier work
# [6] = biological target: GT-1a NS3/4A protease with D168Q (Hepatitis C virus genotype 1a, UniProt P27958, D1194Q); type: biochemical; settings: GT-1a D168Q
Structure (SMILES),Ki (GT-1 HCV NS3/4A protease),"fold change (loss) in potency, D168Q relative to GT-1 WT [1]","loss in potency, R123T/I132L/D168Q (1a3a) relative to GT-1 WT [2]",Ki in GT-3 (in words) (GT-3 HCV NS3/4A protease [3]),"fold change (FC) in Ki, GT-3 relative to GT-1 (GT-3 HCV NS3/4A protease [4])",loss in activity against GT-3 compared to GT-1 [5],inhibition constant against D168Q (in words) [6],"Ki (GT-3 HCV NS3/4A protease [3]; read-out: Ki against GT-3 NS3/4A protease, GT-3a)",loss in affinity in GT-3 relative to GT-1 (GT-3 HCV NS3/4A protease [4]),Ki (GT-3 HCV NS3/4A protease [3])
"C=C[C@@H]1C[C@]1(NC(=O)[C@@H]1C[C@@H](Oc2ncc(OC)c3ccc(Cl)cc23)CN1C(=O)[C@@H](NC(=O)OC(C)(C)C)C(C)(C)C)C(=O)NS(=O)(=O)C1CC1 [ASV, asunaprevir]",2.7 nM,72 fold,2–3 orders of magnitude,low to submicromolar,975 fold,–,–,–,–,–
"CC(C)(C)OC(=O)N[C@H]1CCCCC/C=C\[C@@H]2C[C@@]2(C(=O)NS(=O)(=O)C2CC2)NC(=O)[C@@H]2C[C@@H](OC(=O)N3Cc4cccc(F)c4C3)CN2C1=O [DAN, danoprevir]",1 nM,30 fold,2–3 orders of magnitude,low to submicromolar,878 fold,140- to 1500 fold,–,–,–,–
CC[C@@H]1C[C@]1(NC(=O)[C@@H]1C[C@@H](Oc2cc(-c3csc(NC(C)C)n3)nc3c(Cl)c(OCCN4CCOCC4)ccc23)CN1C(=O)[C@@H](NC(=O)O[C@@H]1C[C@@H]2C[C@@H]2C1)C(C)(C)C)C(=O)O [GS-9451],–,–,–,–,–,140- to 1500 fold,–,–,–,–
COc1ccc2nc3c(nc2c1)O[C@@H]1C[C@H]2C(=O)N[C@]4(C(=O)NS(=O)(=O)C5(C)CC5)C[C@H]4/C=C/CCCCC[C@H](NC(=O)O[C@@H]4CCC[C@H]4CCCCC3)C(=O)N2C1 [MK-6325],0.1 nM,4 fold,2–3 orders of magnitude,–,–,–,subnanomolar,31 nM,2–3 orders of magnitude,–
"CC[C@@H]1C[C@]1(NC(=O)[C@@H]1C[C@@H]2CN1C(=O)[C@H](C(C)(C)C)NC(=O)OCC(C)(C)CCCCc1cccc3c1CN(C3)C(=O)O2)C(=O)NS(=O)(=O)C1CC1 [VAN, vaniprevir]",0.7 nM,44 fold,2–3 orders of magnitude,low to submicromolar,533 fold,–,–,–,–,–
CC(C)(C)NC(=O)N[C@H](C(=O)N1C[C@H]2[C@@H]([C@H]1C(=O)NC(CC1CCC1)C(=O)C(N)=O)C2(C)C)C(C)(C)C (stereo partly drawn) [boceprevir],33 nM,0.7 fold,–,–,2.2 fold,–,–,–,–,71 nM
C=C[C@@H]1C[C@]1(NC(=O)[C@@H]1C[C@@H]2CN1C(=O)[C@H](C(C)(C)C)NC(=O)O[C@@H]1C[C@H]1CCCCCc1nc3ccc(OC)cc3nc1O2)C(=O)NS(=O)(=O)C1CC1.O [grazoprevir],0.1 nM,–,2–3 orders of magnitude,–,–,140- to 1500 fold,–,–,2–3 orders of magnitude,–
COc1ccc2c(O[C@@H]3C[C@H]4C(=O)N[C@]5(C(=O)NS(=O)(=O)C6CC6)C[C@H]5/C=C\CCCCN(C)C(=O)[C@@H]4C3)cc(-c3nc(C(C)C)cs3)nc2c1C [simeprevir],–,–,–,–,–,140- to 1500 fold,–,–,–,–
CCC[C@H](NC(=O)[C@@H]1[C@H]2CCC[C@H]2CN1C(=O)[C@@H](NC(=O)[C@@H](NC(=O)c1cnccn1)C1CCCCC1)C(C)(C)C)C(=O)C(=O)NC1CC1 [telaprevir],33 nM,1.2 fold,–,–,8 fold,–,–,–,–,266 nM
